We go through five compounds from patent publication US11564388B2, “Supercooling methods for preservation of biological samples” (X-Therma, Inc., priority 2017, dated 2023).

SMILES strings stand for the structures. “Also recorded” adds a separate entry of the source.

A short description of data set [1]: Crystallographic x-ray diffraction (XRD) ice formation assay. The data set is classed as physicochemical. The note with it: for reduction of necessary EG concentration while preventing ice formation (ice ring scores): XRD, EG 15-30% (v/v), peptoid 1 and 5 mg/mL. The method, then:
In order to increase the throughput of library analysis, a crystallographic x-ray diffraction (XRD) technique was used to evaluate ice crystal formation. For these experiments, the compounds named “Compound 2,” “Compound 8,” “Compound 10,” “Compound 11,” “Compound 12,” “Compound 13,” and “Compound 58” were tested. Compound 58 is similar to Compound 12, except that an arginine amino acid has been appended to the N-terminal end.
For these experiments, EG concentrations between 15% and 30% (v/v) were used. Typically, EG, DMSO, and other cryoprotectants are used during XRD sample analysis at concentrations of 35-40% (v/v) to vitrify solutions and avoid diffraction interference from ice crystals. Concentrations of 1 and 5 mg/mL of the peptoid and peptoid-peptide compounds were used. FIGS. 3A, 3B, and 3C illustrate exemplary XRD data under conditions of complete vitrification, partial vitrification with the presence of cubic ice, and freezing ([…]), respectively. FIG. 3D provides ice rings scores for a variety of EG concentrations and two concentrations of Compounds 2, 8, and 12.
“IceRing1” and “IceRing2” refer to ice formation scores, which range between 0 (no ice formation) and 15 (large ice formation).
The sample containing Compound 12 at a concentration of 5 mg/mL (0.5% (w/v)) and EG at a concentration of 17.5% (v/v) in water was ice-free after flash freezing. […] In the figures, black spots and rings represent ice crystals.

Another data set concerns HEK 293 cell line. Briefly: Cytotoxicity assay (MTT). The data set is classed as cell-based, human. As to the method:
A Tecan Genesis Robotic Workstation was used to prepare solutions in 96- and 384-well plates. Solutions contained culture media, buffers, a cryoprotectant composition of the present invention (Compound 12) or DMSO. Solutions were adjusted to the desired pH. Serial dilutions were performed to obtain solutions containing various concentrations of Compound 12 and DMSO. Control experiments were performed using only culture media.
For these experiments, cells were seeded at low density (i.e., 10% confluence), exposed to solutions containing Compound 12 or DMSO, and placed in a 37° C. incubator. The cells were allowed to grow until control cells that were treated only with empty vehicle approached 70% confluence (typically about 3 to 5 days). Assessment for compound cytotoxicity was via MTT assay.

In the next data set the test system is HEK 293 cells. Briefly: Cryopreservation assay, flash freezing in liquid nitrogen, Calcein AM viability. The data set is classed as cell-based, human. As to the method:
Initial cryopreservation assays were performed using very simple solutions, with and without the addition of Compound 12, in order to minimize confounding outside factors. For this first set of experiments, two sample solutions were prepared. The first sample solution contained simple buffer and ethylene glycol (EG) at a concentration of 22.5% (v/v), and the second sample solution contained simple buffer, EG (22.5% (v/v)), and 5 mg/mL (0.5% (w/v)) of Compound 12.
HEK 293 cells were grown until 70% confluent, then treated with trypsin to remove adhesion proteins and yield free floating cells. Cells were counted using a hemocytometer and sample cell concentrations were adjusted to final concentrations of 10,000 cells per microliter. Cells were then compressed into tight pellets by centrifugation, and each sample was subsequently mixed with 20 μL of one of the sample solutions. Samples were then flash frozen by immersion in liquid nitrogen, followed by rewarming in a 37° C. water bath. After the freeze-thaw process, cells were suspended in a 400× volume of culture media for recovery. The positive control sample was treated with culture media at 37° C. and not subjected to the freeze-thaw process. The negative control sample was treated with culture media only during the freeze-thaw process. After recovery, cells were stained with Calcein AM for 30 minutes and cell viability was measured using a fluorescence plate reader.
A second set of experiments was performed to evaluate the cryopreservation potential of a formulation that contained 5 mg/mL of Compound 12 plus a mixture of glycols, disaccharides, and a general buffer. Post-thaw survival following vitrification in liquid nitrogen was evaluated as described above.

Data set [2] can be described thus: Larger volume flash freeze, rewarming and −20° C. storage assay. It is filed as physicochemical. The note with it: 22.5% EG. The method, then: In order to test the usefulness of compositions of the present invention at larger scales, experiments were performed using solution volumes that are similar to volumes used for standard egg and stem cell preservation. For these experiments, two samples, one containing 22.5% EG and buffer only, and another containing 22.5% EG and 5 mg/ml (0.5% w/v) of Compound 12 and buffer, were flash frozen in liquid nitrogen. […] The rewarming of the solutions in a 37° C. water bath led to an unexpected and beneficial result. The Compound 12 solution bypassed devitrification in less than 2 seconds upon rewarming (FIG. 6B, right), whereas chunks of ice were seen floating in the control sample (FIG. 6B, left) after 20 seconds. Condensation was seen on each of the tubes because the tubes were actually still much below room temperature.

For data set [3] the following is noted: MilliQ water, slow cooled, −20° C., one hour; peptoid 9 mM, EG 160 mM. The method, then: In this experiment, four water-based samples were prepared in capillary tubes containing MilliQ purified water. One sample contained only water, and another sample contained 160 mM ethylene glycol (EG). The other two samples each contained a peptoid polymer at 9 mM. One of the peptoid polymer samples contained the peptoid polymer called “Compound 1,” while the other sample contained the peptoid polymer called “Compound 10.” The sequences of the peptoid polymers are as follows:
After sample preparation, all samples were slow cooled and incubated at −20° C. on a Peltier cooled plate. After one hour, samples were removed and immediately photographed using a digital camera attached to a 180× Stereo Zoom microscope (FIG. 2A).

For the compound `CCC(C)NCC(=O)N(CC(=O)N(CC(=O)N(CC(=O)N(CC(=O)N(CC(=O)N(CC(=O)N(CC(=O)N(CC(=O)N(CC(N)=O)CC(C)O)C(C)CC)C(C)CC)C(C)CC)CC(C)O)CC(C)O)CC(C)O)C(C)CC)C(C)CC` (stereo not drawn) [Compound 2, Nsb-Nsb-Nsb-Nhp-Nhp-Nhp-Nsb-Nsb-Nsb-Nhp], the “reduction of necessary EG concentration while preventing ice formation (ice ring scores)” value in data set [1] was “significantly reduced necessary EG concentrations while preventing ice formation”.
Same read-out and setting: the value for `CCC(C)NCC(=O)N(CC(=O)N(CC(=O)N(CC(=O)N(CC(=O)N(CC(=O)N(CC(=O)N(CC(=O)N(CC(=O)N(CC(N)=O)CC(C)O)CC(C)O)CC(C)O)C(C)CC)CC(C)O)CC(C)O)CC(C)O)CC(C)O)CC(C)O` (stereo not drawn) [Compound 8, Nsb-Nhp-Nhp-Nhp-Nhp-Nhp-Nsb-Nhp-Nhp-Nhp] was “significantly reduced necessary EG concentrations while preventing ice formation”.
In the case of `CCC(C)NCC(=O)N(CC(=O)N(CC(=O)N(CC(=O)N(CC(=O)N(CC(=O)N(CC(=O)N(CC(=O)N(CC(=O)N(CC(N)=O)C(C)CC)C(C)CC)CC(C)O)CC(C)O)C(C)CC)C(C)CC)CC(C)O)CC(C)O)C(C)CC` (stereo not drawn) [Compound 12, Nsb-Nsb-Nhp-Nhp-Nsb-Nsb-Nhp-Nhp-Nsb-Nsb], in the data set on HEK 293 cell line (0.5% w/v), the “toxicity at the concentration that prevents ice formation” value is listed as “did not show toxicity”. Besides, the “toxicity at four times the ice-preventing concentration” value with HEK 293 cell line (four times greater than 0.5% w/v) was “did not show significant toxicity”. For the same compound, the “toxicity compared with culture media alone” value in the data set with HEK 293 cell line (serial dilutions, 37° C., about 3 to 5 days) is recorded as “did not significantly deviate from the that of culture media alone”. Further, the “ice formation after flash freezing” value in data set [1] (5 mg/mL (0.5% (w/v)) with EG 17.5% (v/v) in water, stream of liquid nitrogen vapor) is “ice-free”. Further, the “anti-icing effect in comparison to EG at the same molar concentration” value in data set [1] (5 mg/mL with EG 17.5% (v/v)) was 500 times. Further, the “reduction of necessary EG concentration while preventing ice formation (ice ring scores)” value in data set [1] is recorded as “significantly reduced necessary EG concentrations while preventing ice formation”. In the data set on HEK 293 cells (buffer, EG 22.5% (v/v), 5 mg/mL, liquid nitrogen), the “vitrification of the cell sample during the freezing process” value is on record as “complete vitrification without ice formation”. The “cell survival compared with EG alone” value in the data set with HEK 293 cells (buffer, EG 22.5% (v/v), 5 mg/mL, viability 12 hours post-thaw) is on record as “greatly improved cell survival”. Moreover, the “post-thaw survival of the cells” value in the data set on HEK 293 cells (vitrified with liquid nitrogen, viability 16 hours post-thaw, Compound 12 at 5 mg/mL plus glycols, disaccharides, general buffer) is reported as 98%. Further, the “vitrification on flash freezing in liquid nitrogen” value in data set [2] (buffer, 5 mg/ml (0.5% w/v)) is “complete vitrification with no ice formation; also recorded: vitrified”. Further, the “state after overnight in −20° C. freezer” value in data set [2] (100 μL, 5 mg/ml) is on record as “remained unfrozen”.
Take `C[S+](C)[O-]` [DMSO, dimethyl sulfoxide, reference compound]: the “concentration at which warm survival for an extended period was not allowed” value with HEK 293 cell line (37° C.) was “above 0.5 % (v/v)”.
As for `OCCO` [EG, ethylene glycol], in data set [3], the ice crystal formation entry was “significant ice crystal formation”.
